The test system of assay [1] is MIA PaCa-2 cells. Nature of the assay: ROS level (DCFH-DA probe) in MIA PaCa-2 cells. As to conditions: 4 days treatment. The format is cell-based. On the procedure: To assess the impact of Compound 40 on ROS level, the cells were exposed to ROS indicator probe (DCFH-DA) for 1 h. ROS induced increase in DCF fluorescence was estimated at 485 nm excitation and 528 nm emission. ROS levels were normalized to cellular DNA levels which were measured by using bis-benzamide fluorescence at 360 nm excitation and 460 nm emission. The ROS levels are represented at % of control. […] Over-expression of RXRa further augmented the ROS levels.

The test system of assay [2] is MIA PaCa-2 cells. Nature of the assay: Caspase-3 activity (Ac-DEVD-R110 cleavage) in MIA PaCa-2 cells. The format is cell-based. On the procedure:
Caspase-3 activity was measured using its ability to cleave its substrate (Ac-DEVD-R110). Increased Caspase-3 activity would lead to higher release of fluorescent R110 which was measured at 485 nm excitation and 530 nm emission. Activity of caspase-3 (as nano-moles of R110 released) was normalized to total cellular protein. […] Cell death was measured by increased levels of DNA fragments as per manufacturer's protocol (Roche) and was normalized to total cellular DNA. Data are represented as % of control.

Assay [3] concerns MIA PaCa-2 cells. Nature of the assay: BrdU incorporation assay in MIA PaCa-2 cells. The format is cell-based. The conditions noted are these: 3 uM. On the procedure: Impact of compound-40 on cell proliferation was further evaluated by BrdU incorporation assay. MIA PaCa-2 cells were grown for 4 days in presence or absence of compound-40 (3 uM). After treatment with vehicle control or compound-40 (3 uM), cells were exposed to BrdU. BrdU incorporation was measured using a commercially available kit (Roche) as per manufacturer's protocol.

A further assay has as its system db/db mice. The assay is described as follows: Effect of RXR agonist on db/db mice. The class given is in vivo. As to conditions: 2.5, 5, 10 and 15 mg/kg, BID, po. On the procedure:
The male db/db and lean mice were procured from Jackson Laboratory, US laboratories, acclimatized for a week, were fed a standard laboratory diet. The lean control and the db/db mice were 8 weeks old at the start of the study and were randomized to either vehicle or drug (Compound 40, 2.5, 5, 10 and 15 mg/kg, BID, po) treatment groups by body weight, fed glucose and glucose AUC during an oral glucose tolerance test. The treatment was continued for 8 weeks. Body weight, fasting and fed glucose and fast triglycerides (tail snip) were monitored weekly. At the end of week 8 of the treatment, glucose and insulin HbAlc levels were followed at different time intervals. Blood samples collected from tail nipping method were subjected at the end of week 7 of treatment period measured for HbAlc levels by DCA vantage (SIEMENS).
Assessment of 24 h glucose profile: Fed state blood samples were collected by tail nipping method and measured for glucose levels at every 2 h time intervals up to 8 h and then followed by 4 h intervals at the end of week 7 of treatment.

For the next assay, the system named is male Syrian Hamsters. The assay is described as follows: High cholesterol diet induced hyperlipidaemia in hamsters. The format is in vivo. As to conditions: 10 mg/kg b.wt, 8-12 weeks. On the procedure: Eight to ten week old male Syrian Hamsters were housed in polypropylene cages provided with sterile paddy husk as bedding material. The animals were maintained at temperature 22±3° C., relative humidity 50-70%, 15-18 air cycle changes with 12 h dark and light cycle. The animals were provided with rodent feed (ad libitum) supplied by harlan laboratories to normal control animals and treatment groups were fed with High Cholesterol diet, prepared in-house by mixing 11.5% coconut oil, 11.5% corn oil, 0.5% cholesterol, and 0.25% deoxycholate in chow diet. Bisleri water (ad libitum) was provided. The animals were randomized based on body weight and divided into control and treatment groups. Compound 40 was administered, at a dose of 10 mg/kg b.wt, for a period of 8-12 weeks to the treatment group. Daily feed consumption, weekly body weight, total cholesterol and triglyceride levels were estimated.

The next assay deals with ob/ob mice. The assay is described as follows: Effect of RXR agonist on ob/ob mice. The class given is in vivo. The conditions noted are these: 3, 10 and 30 mg/kg, BID, po; 4 weeks. On the procedure:
The male ob/ob and lean mice were procured from Harlon laboratories, acclimatized for a week, were fed a standard laboratory diet. The lean control and the ob/ob mice were 16 weeks old at the start of the study and were randomized to either vehicle or drug (Compound 40, 3, 10 and 30 mg/kg, BID, po) treatment groups by body weight, fed glucose and glucose AUC during an oral glucose tolerance test. The treatment was continued for 4 weeks. Fed glucose and fast triglycerides (tail snip) were monitored weekly. At the end of week 4 of the treatment, Animals were sacrificed […] terminal measurement of fasting glycerol, free fatty acid, cholesterol, LDL levels.

The subject of the next assay is Male Wistar rats. Nature of the assay: Isoprenaline induced cardiac hypertrophy in rats. The class given is in vivo. The conditions noted are these: 10 mg/kg, p.o., q.d., 11 weeks. On the procedure: Male Wistar rats of fourteen weeks age were housed under controlled temperature 22±3° C., relative humidity 50-70%, 12 hour light and 12 hour dark cycle with artificial fluorescent tubes. Animals were acclimatized for seven days. On eight day animals were randomized based on their body weights and allotted into nine animals/group. Different groups into which animals allotted were G1: Vehicle control, G2: Isoprenaline control (5 mg/kg, s.c. twice a week) and G3: Isoprenaline (5 mg/kg, s.c. twice a week)+Compound 40 (10 mg/kg, p.o., q.d.). Treatment with Compound 40 (10 mpk) for G3 group was started one week prior to isoprenaline administration and both the treatments were continued for eleven weeks. The animals were monitored for daily feed consumption and weekly body weight throughout the study. At the end of treatment period (Week 11) five animals from each group were subjected to Cardiovascular hemodynamic assessment by Millar catheter using MPVS Ultra control interface connected to AD power lab, AD instruments. Different parameters measured were heart rate, stroke work, stroke volume, cardiac output, left ventricular systolic pressure, left ventricular diastolic pressure, left ventricular diastolic volume Immediately after hemodynamic estimation terminal blood from all the animals were collected followed by the collection of hearts. All the separated serum samples were used for estimation of several cardiac markers like ANP, BNP, CRP, LDH, CKN, CKMB and SGOT. Collected hearts were examined for histopathological changes and gene expression studies. All the numerical output was expressed as Mean±SEM, one way ANOVA followed by Dunnets' test using Graph pad prism software.

Experimental findings from patent US9862713B2, “Substituted bicyclic heteroaryl compounds as RXR agonists” (CONNEXIOS LIFE SCIENCES PVT. LTD., priority 2014, dated 2018) are described below.

In the case of `CC1(C)CCC(C)(C)c2sc(N(CC3CC3)c3ccc(C(=O)O)cn3)nc21` [Compound 40, 6-[(Cyclopropylmethyl) (4,4,7,7-tetramethyl-4,5,6,7-tetrahydro-1,3-benzothiazol-2-yl)amino]pyridine-3-carboxylic acid], the ROS levels entry with MIA PaCa-2 cells [1] is on record as “significant augmentation of stress levels”. Further, the Caspase-3 activity entry in the assay with MIA PaCa-2 cells [2] is reported as “significantly increased”. Further, in the assay on MIA PaCa-2 cells [3] (4 days), the BrdU incorporation result was “significantly reduced”. In the assay on MIA PaCa-2 cells [3] (RXRa over-expressing cells), the “BrdU incorporation in RXRa over-expressing MIA PaCa-2” value is reported as “further reduced the BrdU incorporation”. Besides, the “post-prandial blood glucose levels” value in the assay on db/db mice (8 weeks) was “significantly reduced post-prandial blood glucose levels”. For the same molecule, in the assay on db/db mice (end of week 7), the HbAlc levels result is “steep and dose dependent reduction”; the “glucose excursion during the prandial phase (24 h glucose profile)” value is recorded as “significantly reduced glucose excursion”. In the assay on male Syrian Hamsters, the LDL-c result was “significant reduction”, the Non-HDL cholesterol entry is given as “significant reduction” and the total cholesterol result is on record as “significant reduction”. In the assay with ob/ob mice, the LDL-c result is given as “decreasing LDL-c”; the “prandial hyperglycemia (fed glucose)” value was “both an early onset and sustained control of prandial hyperglycemia”; the total cholesterol entry was “significantly decreased total cholesterol”. In addition, the absolute heart weight result with Male Wistar rats (isoprenaline 5 mg/kg, s.c. twice a week) is “substantial reduction”. Moreover, in the assay with Male Wistar rats (isoprenaline), the “Stroke volume (SV)” value is given as “significant improvement”, the “Stroke work (SW)” value is “significant improvement”, the cardiac output entry is given as “improved” and the ejection fraction entry is recorded as “improved”. In addition, in the assay on Male Wistar rats (isoprenaline), the heart rate entry is “improved”, the “thickness of the septum” value is on record as “significant reduction”, the “thickness of the ventricular wall” value was “significant reduction” and the ventricular refilling result was “improvement in ventricular refilling”.
